We go through 9 molecules from patent publication US20080287374A1, “BREAST CANCER-RESISTANT PROTEIN INHIBITOR” (KABUSHIKI KAISHA YAKULT HONSHA, priority 2003, published 2008).

Each structure is given as a SMILES string. ≈ marks a conversion by molar mass, not a printed value.

Test [1] relates to A549/SN-38-4 cell line. The experiment in a line: Effect of flavonoid in overcoming anticancer drug (SN-38) resistance of A549/SN-38 cell line. The settings on record: Homo sapiens; concentration of flavonoid for 50% reduction of relative resistance value to SN-38; A549/SN-38-4, 48 hours. The test is classed as cell-based, human. As for the experimental part:
The A549 cell line or the A549/SN-38-4 cell line was suspended in 10% FBS/Ham's F-12, and the resultant suspension was inoculated into a 96-well microplate, followed by culturing at 5% CO2 and 37° C. overnight (2×10^3 cells/50 μL/well). Thereafter, a solution of a flavonoid and SN-38 in 10% FBS/Ham's F-12 (25 μL) was added to each of the wells, followed by culturing at 5% CO2 and 37° C. for 48 hours. After completion of culturing, the number of viable cells was counted by use of TetraColor ONE according to the attached instruction manual.

A further test deals with MES-SA/Dx5 cell line. The experiment in a line: Effect of flavonoid on multidrug (paclitaxel) resistance of MES-SA/Dx5 cell line. The test is classed as cell-based, human. The settings on record: Homo sapiens; concentration of flavonoid for 50% reduction of relative resistance value to paclitaxel; MES-SA/Dx5 (P-glycoprotein overexpression), 48 hours; read-out: Resistance overcoming effect EC50. The procedure:
Human uterine cancer MES-SA cell line or MES-SA/Dx5 cell line which had acquired multidrug resistance through overexpression of P-glycoprotein (Cancer Res. 45, 4091-4096 (1985)) was suspended in 10% FBS/DMEM, and the resultant suspension was inoculated into a 96-well microplate, followed by culturing at 5% CO2 and 37° C. overnight (3×10^3 cells/50 μL/well). Thereafter, a solution of a flavonoid and paclitaxel in 10% FBS/DMEM (25 μL) was added to each of the wells, followed by culturing at 5% CO2 and 37° C. for 48 hours. After completion of culturing, the number of viable cells was counted by use of TetraColor ONE according to the attached instruction manual.

The next test has as its system P388/BCRP cell line. The experiment in a line: Effect of flavonoid in overcoming anticancer drug resistance in vivo (survival of tumor-implanted mice). More on the design: species or system mouse. The settings on record: compound 100 mg/kg/day + CPT-11 20 mg/kg/day, intraperitoneally once a day, days 1 to 10; CDF1 mice. The procedure: Groups of six-week-old female CDF1 mice, each group consisting of 5 mice, were employed. The P388 cell line or the P388/BCRP cell line (1×10^6 cells) was implanted into the peritoneal cavity of each of the mice. […] Merely the solvent was administered to mice in the control group. In order to evaluate the antitumor effect of the flavonoid, survival rate T/C (%) was calculated from the survival days of the tumor-implanted mice by use of the following formula.
Survival rate T/C (%)=(the mean survival days of mice in the treated flavonoid group)÷(the mean survival days of mice in the control group)×100

The test system of test [2] is A549/SN-38-4 cell line. The experiment in a line: Anticancer drug sensitivity test, A549/SN-38-4. The class given is cell-based, human. The settings on record: stated for the A549/SN-38 cell lines; FIG. 1 shows A549/SN-38-4. As for the experimental part:
Human non-small cell lung cancer A549 cell line was subcultured at 5% CO2 and 37° C. by use of a Ham's F-12 medium containing 10% FBS, 100 U/mL of penicillin, and 100 μg/mL of streptomycin (10% FBS/Ham's F-12). SN-38-resistant A549 cell lines were selected by subculturing the A549 cell line in a medium for two months while the concentration of SN-38 contained in the medium was increased in a stepwise manner (4 to 10 ng/mL). Subsequently, the resultant SN-38-resistant A549 cell lines were subjected to cloning by means of limiting dilution, to thereby establish six cloned SN-38-resistant A549 cell lines (A549/SN-38-1 to 6).
Thereafter, a solution of an anticancer drug in 10% FBS/Ham's F-12 (50 μL) was added to each of the wells, followed by culturing at 5% CO2 and 37° C. for 48 hours. After completion of culturing, the number of viable cells was counted by use of a viable cell counting reagent [TetraColor ONE (trade name), product of Seikagaku Corporation] according to the attached instruction manual. […] “Relative resistance value” is obtained by dividing the IC50 for an A549/SN-38 cell line by the IC50 for the A549 cell line. The greater the relative resistance value, the higher the level of acquired resistance.

Test [3] concerns A549/SN-38-4 cell line. In words: Amount of anticancer drug accumulated in A549/SN-38 cell line. The following applies: both the A549 cell line and the A549/SN-38-4 cell line; SN-38 300 ng/mL, 60 minutes. The test is classed as cell-based, human. As for the experimental part:
The A549 cell line or the A549/SN-38-4 cell line (4×10^6 cells/mL) was suspended in 10% FBS/RPMI1640 (1 mL), and an SN-38 DMSO solution (1 μL, final concentration: 300 ng/mL) was added to the resultant suspension, followed by incubation at 37° C. for 60 minutes. Thereafter, centrifugation was performed (2° C., 1,400×g, 1 min), and the resultant supernatant was removed. Ice-cooled PBS was added to the thus-precipitated cells, and the cells were resuspended therein, followed by centrifugation (2° C., 1,400×g, 1 min) for washing of the cells. This washing procedure was performed again, followed by addition of PBS (375 μL) and sonication of the cells. To the resultant destructed cells, methanol (375 μL) and 10% zinc sulfate solution (15 μL) were added, and the resultant mixture was stirred, followed by centrifugation (2° C., 12,500×g, 5 min) and collection of the supernatant. The thus-collected supernatant was dispensed in a white 96-well microplate for fluorescence intensity measurement (200 μL/well), and then the amounts of SN-38 and an SN-38-glucuronide contained in the supernatant were measured by use of a microplate fluorometer [SPECTRA max GEMINI XS (trade name), product of Molecular Devices] […]

For `COc1ccc(/C=C/C(=O)c2ccc(O)cc2O)cc1OC` [Compound 3-5, 2′,4′-Dihydroxy-3,4-dimethoxychalcone], in the test with A549/SN-38-4 cell line [1], the half-maximal effective concentration (EC50) was found to be 0.04 mg/L (≈ 0.133 µM). Further, in the test with MES-SA/Dx5 cell line, the concentration giving a half-maximal response (EC50) was over 1 mg/L. In addition, in the test on P388/BCRP cell line, the “Survival days Mean ± S.D.” value came out at 18.4 ± 0.5 days and the “Survival rate T/C” value is on record as 153%.

With `O=C1c2c(O)ccc(O)c2C(=O)c2c(NCCNCCO)ccc(NCCNCCO)c21` [mitoxantrone], in the test with A549/SN-38-4 cell line [2], the “Resistance of the A549/SN-38 cell lines to the drug (in words)” value was “particularly strong resistance”.

Regarding `COc1cc2oc(-c3ccccc3)cc(=O)c2cc1OC` [Compound 1-15, 6,7-Dimethoxyflavone], the concentration for a half-maximal effect (EC50) in the test on A549/SN-38-4 cell line [1] is 0.16 mg/L (≈ 0.567 µM). Also, in the test with MES-SA/Dx5 cell line, the EC50 is over 1 mg/L. In the test on P388/BCRP cell line, the “Survival days Mean ± S.D.” value is on record as 18.2 ± 3.9 days and the “Survival rate T/C” value is listed as 152%.

In the case of `CCc1c2c(nc3ccc(O)cc13)-c1cc3c(c(=O)n1C2)COC(=O)[C@]3(O)CC` [SN-38], the “Resistance of the A549/SN-38 cell lines to the drug (in words)” value with A549/SN-38-4 cell line [2] is recorded as “particularly strong resistance”.

As for `CCc1c2c(nc3ccc(O[C@@H]4O[C@H](C(=O)O)[C@@H](O)[C@H](O)[C@H]4O)cc13)-c1cc3c(c(=O)n1C2)COC(=O)[C@]3(O)CC` [SN-38-glucuronide], the “SN-38-glucuronide detected in cells” value in the test on A549/SN-38-4 cell line [3] is “virtually no SN-38-glucuronide was detected”.

Turning to `COc1ccc(-c2cc(=O)c3c(O)c(OC)c(OC)cc3o2)cc1O` [Compound 1-6, 3′,5-Dihydroxy-4′,6,7-trimethoxyflavone], the concentration giving a half-maximal response (EC50) was 0.017 mg/L (≈ 0.0494 µM) in the test with A549/SN-38-4 cell line [1] and over 1 mg/L with MES-SA/Dx5 cell line.

For the molecule `COc1ccc(-c2cc(=O)c3ccccc3o2)cc1OC` [Compound 1-4, 3′,4′-Dimethoxyflavone], the results for the 50% effective concentration (EC50) with A549/SN-38-4 cell line [1] and with MES-SA/Dx5 cell line were 0.03 mg/L (≈ 0.106 µM) and over 1 mg/L, respectively.

`COc1ccc2c(=O)cc(-c3ccc(OC)c(OC)c3)oc2c1` [Compound 1-14, 3′,4′,7-Trimethoxyflavone]: the results for the concentration for a half-maximal effect (EC50) in the test with A549/SN-38-4 cell line [1] and in the test with MES-SA/Dx5 cell line were 0.0078 mg/L (≈ 0.025 µM) and over 1 mg/L, respectively. Also, the “Survival days Mean ± S.D.” value with P388/BCRP cell line stood at 18.4 ± 4.5 days. The “Survival rate T/C” value with P388/BCRP cell line was found to be 153%.

Turning to `O=c1cc(-c2ccc(O)c(O)c2)oc2cc(O)cc(O)c12` [Compound 1-8, 3′,4′,5,7-Tetrahydroxyflavone], the concentration giving a half-maximal response (EC50) in the test with A549/SN-38-4 cell line [1] is 0.46 mg/L (≈ 1.61 µM); with MES-SA/Dx5 cell line, over 1 mg/L.
